{"source": "patent US6475479B1", "about": "“Terpenes for reducing the effect of pheromone on lepidoptera” (BASF Aktiengesellschaft, priority 1995, dated 2002)", "key": {"Lobesia males [1]": {"tested_on": "Lobesia males", "test": "Laboratory wind tunnel preference test with pheromone-lured electric traps", "type": "in vivo", "details": "cartridges with 30 μl E7,Z9-dodecadien-1-yl acetate 10^-4 g/g silicone oil plus citral 10^-1 g/g silicone oil, relative to standard (pheromone alone) set equal to one", "source_text": "Laboratory Wind Tunnel 4 electric traps up to […] in size were installed in a laboratory wind tunnel. As electric traps, commercially available electric insect capture appliances were rebuilt to give recording lure traps. The fluorescent tube normally responsible for the attractant action was replaced by a scent source. To avoid positional effects, the four traps were […]. The wheel rim was rotated by means of a motor having a speed of two revolutions per hour (once around its own axis and back), so that the traps continuously changed position. […] The number of moths trapped in each case was determined daily. By means of the number of moths trapped in the individual traps, the attractiveness of the particular lure was determined (preference test). The influence of various dilutions of E7,Z9-dodecadien-1-yl acetate was determined by setting the number of moths in the most common trap equal to one; the capturing ability of the other traps was calculated relative to this. […] The recapture rate of the standard was set equal to one and that of the traps with the terpene additive was calculated relative to this."}, "Lobesia males [2]": {"tested_on": "Lobesia males", "test": "Outdoor wind tunnels over vine rows, simulated mating disruption", "type": "in vivo", "source_text": "In spring 1994 two outdoor wind tunnels were built over a row of vines in each case in an experimental field of the SLFA Neustadt. These were aluminum scaffoldings 2 m high, 2 m wide and 10 m long.\nThe front and back were covered with mosquito nets made of cotton (mesh width 1.5×1.5 mm); 50μ thick polyethylene film lay over the entire length.\nAir was blown into the interior through a ventilator at the front of the tunnel.\nTwo traps each were attached at a height of approximately 60 cm in the interior of the two wind tunnels on the ventilator side. The traps were lured with E7,Z9-dodecadien-1-yl acetate. Tunnel 1 remained untreated and served as a control. To simulate a mating disruption situation, 10 filter papers were uniformly distributed at various heights (20-120 cm) in tunnel 2 along the row of grapevines. 1 ml of citral solution in silicone oil with a dilution of 10^−1 g/g was in each case added dropwise to these in order to achieve a uniform concentration of the substance in the interior. A specific number of Lobesia males were in each case set free on the sides of the two wind tunnels opposite to the ventilator sides. After the end of the experiment, the Lobesia males captured in the traps were counted and the recapture rate was determined."}}, "data": [{"smiles": "CC(C)=CCCC(C)=CC=O", "note": "[citral]", "values": [{"measurement": "inhibition of the recapture rate", "setting": "Lobesia males [1]", "value": 90, "unit": "%"}, {"measurement": "Recapture rate", "setting": "Lobesia males [2]; ratio of captured to released Lobesia males, traps lured with E7,Z9-dodecadien-1-yl acetate, 10 filter papers each with 1 ml citral solution 10^-1 g/g in silicone oil in the tunnel", "value": 0.01}, {"measurement": "inhibition of the recapture rate", "setting": "Lobesia males [2]; tunnel 2 (citral, 10 filter papers, 1 ml of 10^-1 g/g in silicone oil) versus untreated control tunnel 1", "value": 94.5, "unit": "%"}]}]}
